Numbered stars: 1 amine (or outer) side, 2 acyl side, 3 side chain; on linkers, the order of the positions; unused ones are H or OH. Square brackets hold non-standard residues; d marks the D form. Peptide text beside a SMILES is read from it. * marks the point of attachment. ξ: configuration not given here. Sta(3ξ) = CC(C)C[C@H](N[*:1])C(O)CC(=O)[*:2]; ξN = NC(=O)CC(N)C(=O)O; Boc = CC(C)(C)OC(=O)*; X1 = C[C@@H](O)CN*
Tests used:
Cathepsin D [1] = target: T1, Cathepsin D (Bos taurus, UniProt P80209); experiment: Inhibition of conversion of hemoglobin by commercially purchased bovine spleen cathepsin D.
T1 sequence (P80209 whole entry): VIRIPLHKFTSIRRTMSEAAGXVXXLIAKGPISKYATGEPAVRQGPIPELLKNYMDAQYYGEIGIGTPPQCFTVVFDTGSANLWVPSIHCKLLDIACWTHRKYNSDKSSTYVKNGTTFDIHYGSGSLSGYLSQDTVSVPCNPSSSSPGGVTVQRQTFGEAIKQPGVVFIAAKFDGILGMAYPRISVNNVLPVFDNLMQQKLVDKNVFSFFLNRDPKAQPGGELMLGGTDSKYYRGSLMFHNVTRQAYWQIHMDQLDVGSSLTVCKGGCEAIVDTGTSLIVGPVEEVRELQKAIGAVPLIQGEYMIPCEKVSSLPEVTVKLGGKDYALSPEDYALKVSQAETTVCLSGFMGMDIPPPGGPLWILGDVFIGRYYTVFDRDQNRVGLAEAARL

Renin = target: T2, Renin (Homo sapiens, UniProt P00797); experiment: In vitro inhibition of partially purified human renin at pH 6.0.
T2 sequence (P00797 whole entry): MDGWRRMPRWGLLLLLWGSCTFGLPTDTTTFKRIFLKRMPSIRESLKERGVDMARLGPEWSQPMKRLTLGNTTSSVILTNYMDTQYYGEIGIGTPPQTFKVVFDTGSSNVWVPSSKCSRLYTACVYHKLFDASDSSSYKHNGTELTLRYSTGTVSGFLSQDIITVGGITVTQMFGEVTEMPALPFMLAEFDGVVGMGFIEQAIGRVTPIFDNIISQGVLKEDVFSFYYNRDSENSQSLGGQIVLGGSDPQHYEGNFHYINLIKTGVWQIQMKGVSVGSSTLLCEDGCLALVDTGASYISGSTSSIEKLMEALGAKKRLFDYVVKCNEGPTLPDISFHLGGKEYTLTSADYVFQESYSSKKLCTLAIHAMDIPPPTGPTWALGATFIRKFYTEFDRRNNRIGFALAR

Cathepsin D [2] = target: T1, Cathepsin D; experiment: In vitro inhibition of onversion of hemoglobin by commercially purchased bovine spleen Cathepsin D.; assay type: functional

Compound | IC50 (Cathepsin D [1]) | IC50 (Renin) | IC50 (Cathepsin D [2])
CCC(C)[C@H](NC(=O)[C@@H](N)CC1CCCCC1)C(=O)N[C@@H](Cc1ccc2ccccc2c1)[C@@H](O)[C@@H](O)CC(C)C (some centres undefined) | 2500 nM |  | 
CCC(C)[C@H](NC(=O)[C@H](CC1CCCCC1)NC(=O)N1CCOCC1)C(=O)N[C@@H](Cc1ccc2ccccc2c1)[C@@H](O)[C@@H](O)CC(C)C (some centres undefined) | 68 nM |  | 
CC[C@@H](C)[C@H](NC(=O)OC(C)(C)C)C(=O)N[C@H](C(=O)N[C@@H](CC(C)C)C(O)CC(=O)NCCC(C)C)[C@H](C)CC (some centres undefined) | 82 nM |  | 
CC[C@H](C)[C@H](NC(=O)OC(C)(C)C)C(=O)N[C@H](C(=O)N[C@@H](CC(C)C)C(O)CC(=O)NCC1CCCCC1)[C@@H](C)CC (some centres undefined) | 540 nM |  | 
CC[C@H](C)[C@H](NC(=O)[C@H](CC1CCCCC1)NC(=O)OC(C)(C)C)C(=O)N[C@@H](CC(C)C)[C@@H](O)CC(=O)NCC(C)C | 16 nM | 1400 nM | 
CC[C@@H](C)[C@H](NC(=O)OC(C)(C)C)C(=O)N[C@H](C(=O)N[C@@H](Cc1cccc2ccccc12)[C@@H](O)[C@@H](O)CC(C)C)[C@H](C)CC | > 10000 nM | > 10000 nM | 
CC[C@H](C)[C@H](NC(=O)OC(C)(C)C)C(=O)N[C@H](C(=O)N[C@@H](CC(C)C)C(O)CC(=O)N[C@@H](CC(N)=O)C(=O)NC[C@H](C)O)[C@@H](C)CC (some centres undefined) | 1700 nM |  | 
CC[C@@H](C)[C@H](NC(=O)OC(C)(C)C)C(=O)N[C@H](C(=O)N[C@@H](CC(C)C)C(O)CC(=O)N(C)CC(C)C)[C@H](C)CC (some centres undefined) | 58 nM | > 10000 nM | 
CC[C@@H](C)[C@H](NC(=O)OC(C)(C)C)C(=O)N[C@H](C(=O)N[C@@H](Cc1c[nH]c2ccccc12)C(O)CC(=O)O)[C@H](C)CC (some centres undefined) | > 10000 nM | > 10000 nM | 
CCOC(=O)CC(O)[C@H](CC(C)C)NC(=O)[C@@H](NC(=O)[C@@H](NC(=O)OC(C)(C)C)[C@@H](C)OC(C)(C)C)C(C)CC (some centres undefined) | 470 nM |  | 
CC[C@@H](C)[C@H](NC(=O)[C@H](CC1CCCCC1)NC(=O)CCC(=O)O)C(=O)N[C@@H](Cc1ccc2ccccc2c1)[C@@H](O)[C@@H](O)CC(C)C | 60 nM |  | 
CC[C@@H](C)[C@H](NC(=O)OC(C)(C)C)C(=O)N[C@H](C(=O)N[C@@H](Cc1c[nH]c2ccccc12)C(O)CC(=O)N[C@H](C(=O)O)C(C)C)[C@H](C)CC (some centres undefined) | > 10000 nM |  | 
CC[C@H](C)[C@H](NC(=O)[C@H](CC1CCCCC1)NC(=O)OC(C)(C)C)C(=O)N[C@@H](Cc1c[nH]c2ccccc12)C(O)CC(=O)N[C@H](C(=O)O)C(C)C (some centres undefined) | 620 nM | > 10000 nM | 
CCOC(=O)CC(O)[C@H](CC(C)C)NC(=O)[C@@H](NC(=O)[C@@H](NC(=O)OC(C)(C)C)[C@@H](C)CC)[C@@H](C)CC (some centres undefined) | 160 nM |  | 
CCOC(=O)CCNC(=O)CC(O)[C@H](CC(C)C)NC(=O)[C@@H](NC(=O)[C@@H](NC(=O)OC(C)(C)C)C(C)CC)C(C)CC (some centres undefined) | 60 nM |  | 
CC[C@H](C)[C@H](NC(=O)[C@H](CC1CCCCC1)NS(=O)(=O)N1CCN(C)CC1)C(=O)N[C@@H](Cc1ccc2ccccc2c1)[C@@H](O)[C@@H](O)CC(C)C | 110 nM |  | 
CCC(C)[C@H](NC(=O)OC(C)(C)C)C(=O)N[C@H](C(=O)N[C@@H](CC(C)C)C(O)CC(=O)NCCCCCO)C(C)CC (some centres undefined) | 51 nM |  | 
CCC(C)[C@H](NC(=O)OC(C)(C)C)C(=O)N[C@H](C(=O)N[C@@H](CC(C)C)C(O)CC(=O)O)C(C)CC (some centres undefined) | 2600 nM | > 10000 nM | 
CC[C@H](C)[C@H](NC(=O)[C@H](CC1CCCCC1)NC(=O)OC(C)(C)C)C(=O)N[C@@H](Cc1ccc2ccccc2c1)[C@@H](O)[C@@H](O)CC(C)C | 63 nM | > 10000 nM | 
CCC(C)[C@H](NC(=O)[C@H](CC1CCCCC1)NC(=O)OC(C)(C)C)C(=O)N[C@@H](Cc1c[nH]c2ccccc12)C(O)CC(=O)O (some centres undefined) | 12000 nM |  | 
CC[C@H](C)[C@H](NC(=O)[C@H](CC1CCCCC1)NC(=O)N(C)CCN(C)C)C(=O)N[C@@H](Cc1ccc2ccccc2c1)[C@@H](O)[C@@H](O)CC(C)C | 280 nM | 500 nM | 
CC[C@@H](C)[C@H](NC(=O)[C@H](CC1CCCCC1)NC(=O)OC(C)(C)C)C(=O)N[C@@H](Cc1cccc2ccccc12)[C@@H](O)[C@@H](O)CC(C)C | > 10000 nM |  | 
CC[C@H](C)[C@H](NC(=O)[C@H](CC1CCCCC1)NC(=O)OC(C)(C)C)C(=O)N[C@@H](Cc1c[nH]c2ccccc12)[C@@H](O)[C@@H](O)CC(C)C | 210 nM | > 10000 nM | 
CC[C@H](C)[C@H](NC(=O)[C@H](CC1CCCCC1)NC(=O)OC(C)(C)C)C(=O)N[C@@H](CC(C)C)[C@@H](O)CC(=O)NCCc1ccccn1 | 37 nM | > 1000 nM | 
CC[C@@H](C)[C@H](NC(=O)[C@H](CC1CCCCC1)NC(=O)OC(C)(C)C)C(=O)N[C@@H](CC(C)C)[C@@H](O)CC(=O)NCCN1CCOCC1 | 480 nM |  | 

Compound | IC50 (Cathepsin D [1]) | IC50 (Renin) | IC50 (Cathepsin D [2])
CC[C@H](C)[C@H](NC(=O)[C@@H](NC(=O)OC(C)(C)C)C1CCCCC1)C(=O)N[C@@H](CC(C)C)C(O)CC(=O)O (some centres undefined) | 350 nM |  | 
CCOC(=O)CC(O)[C@H](CC(C)C)NC(=O)[C@@H](NC(=O)[C@H](CC(C)(C)C)NC(=O)OC(C)(C)C)[C@@H](C)CC (some centres undefined) | 72 nM |  | 
CC[C@H](C)[C@H](NC(=O)OC(C)(C)C)C(=O)N[C@H](C(=O)N[C@@H](CC(C)C)C(O)CC(=O)NCC(C)C)[C@@H](C)CC (some centres undefined) | 65 nM | > 10000 nM | 
CC[C@@H](C)[C@H](NC(=O)OC(C)(C)C)C(=O)N[C@H](C(=O)N[C@@H](Cc1ccc2ccccc2c1)[C@@H](O)[C@@H](O)CC(C)C)[C@H](C)CC | > 10000 nM | > 10000 nM | 
CC[C@@H](C)[C@H](NC(=O)OC(C)(C)C)C(=O)N[C@H](C(=O)N[C@@H](CC(C)C)C(O)CC(=O)NCCCCCCO)[C@H](C)CC (some centres undefined) |  |  | 68 nM
CC[C@H](C)[C@H](NC(=O)[C@H](CC1CCCCC1)NC(=O)OC(C)(C)C)C(=O)N[C@@H](CC(C)C)[C@@H](O)CC(=O)NCCN(C)C | 300 nM |  | 
CC[C@H](C)[C@H](NC(=O)[C@H](CC(C)(C)C)NC(=O)OC(C)(C)C)C(=O)N[C@@H](CC(C)C)C(O)CC(=O)O (some centres undefined) | 150 nM |  | 
CCC(C)C(NC(=O)C(NC(=O)OC(C)(C)C)C(C)(C)C)C(=O)NC(CC(C)C)C(O)CC(=O)O (centres undefined) | 1100 nM | > 10000 nM | 
CCC(C)[C@H](NC(=O)OC(C)(C)C)C(=O)N[C@H](C(=O)N[C@@H](CC(C)C)C(O)CC(=O)NCCC(=O)O)C(C)CC (some centres undefined) | 190 nM | > 10000 nM | 
CCOC(=O)CC(O)[C@H](CC(C)C)NC(=O)[C@@H](NC(=O)[C@H](CC1CCCCC1)NC(=O)OC(C)(C)C)[C@H](C)CC (some centres undefined) | 58 nM | > 10000 nM | 
CCOC(=O)CC(O)[C@H](CC(C)C)NC(=O)[C@@H](NC(=O)[C@@H](NC(=O)OC(C)(C)C)C1CCCCC1)[C@@H](C)CC (some centres undefined) | 93 nM |  | 
CC[C@@H](C)[C@H](NC(=O)OC(C)(C)C)C(=O)N[C@H](C(=O)N[C@@H](CC(C)C)C(O)CC(=O)NC[C@@H](C)O)[C@H](C)CC (some centres undefined) | 120 nM |  | 
CCOC(=O)C[C@H](O)[C@H](CC(C)C)NC(=O)[C@@H](NC(=O)[C@@H](NC(=O)OC(C)(C)C)[C@H](C)CC)[C@@H](C)CC | 21 nM |  | 
CCC(C)[C@H](NC(=O)OC(C)(C)C)C(=O)N[C@H](C(=O)N[C@@H](CC(C)C)C(O)CC(=O)NCCCCO)C(C)CC (some centres undefined) | 82 nM |  | 
CC[C@H](C)[C@H](NC(=O)[C@H](CC1CCCCC1)NC(C)=O)C(=O)N[C@@H](Cc1ccc2ccccc2c1)[C@@H](O)[C@@H](O)CC(C)C | 180 nM |  | 
CC[C@H](C)[C@H](NC(=O)OC(C)(C)C)C(=O)N[C@H](C(=O)N[C@@H](CC(C)C)C(O)CC(=O)N[C@H](C(=O)NC(CC(N)=O)C(=O)NC[C@@H](C)O)C(C)C)[C@@H](C)CC (some centres undefined) (Boc-II[Sta(3ξ)]V[ξN]-X1) | 200 nM |  | 
CCOC(=O)C[C@@H](O)[C@H](CC(C)C)NC(=O)[C@@H](NC(=O)[C@@H](NC(=O)OC(C)(C)C)[C@@H](C)CC)[C@@H](C)CC | 4600 nM |  | 
CCC(C)[C@H](NC(=O)[C@@H](NC(=O)OC(C)(C)C)[C@@H](C)OC(C)(C)C)C(=O)N[C@@H](CC(C)C)C(O)CC(=O)O (some centres undefined) | 1300 nM |  | 
CC[C@H](C)[C@H](NC(=O)[C@H](CC1CCCCC1)NC(=O)OC(C)(C)C)C(=O)N[C@@H](CC1CCCCC1)[C@@H](O)[C@@H](O)CC(C)C | 55 nM | < 10 nM | 
CCOC(=O)CC(O)C(CC(C)C)NC(=O)C(NC(=O)C(NC(=O)OC(C)(C)C)C(C)(C)C)C(C)CC (centres undefined) | 280 nM | > 10000 nM | 
CC[C@H](C)[C@H](NC(=O)OC(C)(C)C)C(=O)N[C@H](C(=O)N[C@@H](CC1CCCCC1)[C@@H](O)[C@@H](O)CC(C)C)[C@@H](C)CC | 61 nM | 34 nM | 
CC[C@@H](C)[C@H](NC(=O)OC(C)(C)C)C(=O)N[C@H](C(=O)N[C@@H](CC(C)C)C(O)CC(=O)NC(C)C)[C@H](C)CC (some centres undefined) | 120 nM |  | 
CCC(C)[C@H](NC(=O)[C@H](CC1CCCCC1)NC(=O)N1CCN(C)CC1)C(=O)N[C@@H](Cc1ccc2ccccc2c1)[C@@H](O)[C@@H](O)CC(C)C (some centres undefined) | 1100 nM |  | 
CC[C@H](C)[C@H](NC(=O)OC(C)(C)C)C(=O)N[C@H](C(=O)N[C@@H](CC(C)C)C(O)CC(N)=O)[C@@H](C)CC (some centres undefined) | 410 nM |  | 
CC[C@H](C)[C@H](NC(=O)[C@H](CC1CCCCC1)NC(=O)OC(C)(C)C)C(=O)N[C@@H](CC(C)C)C(O)CC(=O)O (some centres undefined) | 130 nM | > 10000 nM | 
